Tests used:
[1] = Tested for its ability to displace [125I]- (1R)-beta-CIT with rat cortical membranes
[2] = biological target: Sodium-dependent serotonin transporter (Homo sapiens, UniProt P31645); assay: Compounds binding ability to serotonin transporter was evaluated by displacing [3H]paroxetine in baboon brain; parameters: species or system Papio hamadryas
Rattus norvegicus = organism: Rattus norvegicus; assay: (§1) Tested for its ability to displace [125I]- (1R)-beta-CIT with rat striatal membranes; parameters: species or system Membrane; conditions: Striatum
[3] = as §1; parameters: species or system Striatum, Membrane

Sodium-dependent serotonin transporter, sequence (P31645 whole entry): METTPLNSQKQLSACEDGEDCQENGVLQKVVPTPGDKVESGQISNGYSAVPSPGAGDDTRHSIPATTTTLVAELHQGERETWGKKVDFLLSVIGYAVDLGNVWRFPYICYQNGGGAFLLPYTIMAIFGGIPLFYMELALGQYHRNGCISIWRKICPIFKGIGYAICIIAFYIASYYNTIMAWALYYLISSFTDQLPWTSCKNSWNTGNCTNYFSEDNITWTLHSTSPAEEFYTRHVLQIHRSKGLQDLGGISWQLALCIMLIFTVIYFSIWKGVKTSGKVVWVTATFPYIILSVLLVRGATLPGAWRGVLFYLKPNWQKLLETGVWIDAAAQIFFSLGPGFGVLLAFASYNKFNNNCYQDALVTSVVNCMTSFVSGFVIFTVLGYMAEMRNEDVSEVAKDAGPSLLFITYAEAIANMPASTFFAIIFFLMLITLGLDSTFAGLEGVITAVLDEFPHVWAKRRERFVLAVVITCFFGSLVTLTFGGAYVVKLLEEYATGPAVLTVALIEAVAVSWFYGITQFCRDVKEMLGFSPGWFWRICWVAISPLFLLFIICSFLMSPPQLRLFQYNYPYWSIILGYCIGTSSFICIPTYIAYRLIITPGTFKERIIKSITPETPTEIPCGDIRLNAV

Row | SMILES | IC50 [1] [nM] | IC50 [2] [nM] | IC50 (Rattus norvegicus) [nM] | IC50 [3] [nM]
1 | COC(=O)C1C2CC[C@H](C[C@@H]1c1ccc(I)cc1)N2C (stereo not given in full) | 0.55 | 3.8 | 0.42 | 
2 | COC(=O)[C@@H]1C2CC[C@H](C[C@@H]1c1ccc(I)cc1)N2C | 450 |  |  | 5700

Source: ChEMBL document CHEMBL1126725, “Enantioselectivity of cocaine recognition sites: binding of (1S)- and (1R)-2 beta-carbomethoxy-3 beta-(4-iodophenyl)tropane (beta-CIT) to monoamine transporters” (J Med Chem, 1993)
